From ChEMBL document CHEMBL2074406, “Single amino acid substitutions in the transmembrane domains of breast cancer resistance protein (BCRP) alter cross resistance patterns in transfectants” (Int J Cancer, 2003) come the findings set out here.

Structures are written as SMILES.

In the data set the target is T1, Broad substrate specificity ATP-binding cassette transporter ABCG2 (Homo sapiens, UniProt Q9UNQ0).
T1 sequence (Q9UNQ0 whole entry): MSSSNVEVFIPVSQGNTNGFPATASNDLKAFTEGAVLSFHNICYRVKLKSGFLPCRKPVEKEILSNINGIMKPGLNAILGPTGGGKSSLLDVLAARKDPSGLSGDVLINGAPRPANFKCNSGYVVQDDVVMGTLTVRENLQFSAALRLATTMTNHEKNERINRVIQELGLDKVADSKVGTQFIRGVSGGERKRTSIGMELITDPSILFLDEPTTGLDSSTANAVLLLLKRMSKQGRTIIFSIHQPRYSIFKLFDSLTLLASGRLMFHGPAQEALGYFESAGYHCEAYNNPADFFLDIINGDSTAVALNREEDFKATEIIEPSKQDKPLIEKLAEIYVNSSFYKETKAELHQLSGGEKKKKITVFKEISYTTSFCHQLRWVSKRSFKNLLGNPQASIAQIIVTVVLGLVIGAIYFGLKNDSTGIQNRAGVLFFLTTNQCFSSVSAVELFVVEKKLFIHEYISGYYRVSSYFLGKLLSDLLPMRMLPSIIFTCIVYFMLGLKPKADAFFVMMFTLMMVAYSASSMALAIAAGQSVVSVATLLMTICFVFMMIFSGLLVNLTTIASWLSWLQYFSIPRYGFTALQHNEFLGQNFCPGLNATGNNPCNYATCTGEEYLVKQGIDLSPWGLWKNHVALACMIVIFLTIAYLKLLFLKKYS
The data set can be described thus: TP_TRANSPORTER: drug resistance in BCRP-expressing PA317 cells. To be noted: mouse. The data set is classed as functional, cell-based.
`COc1ccc2c3c([nH]c2c1)[C@H](C=C(C)C)N1C(=O)[C@@H]2CCCN2C(=O)[C@@H]1C3` [FUMITREMORGIN]: the Activity result was “inhibitor []”.
`C[C@]12CC[C@@H]3c4ccc(O)cc4CC[C@H]3[C@@H]1CCC2=O` [ESTRONE]: the Activity result is “inhibitor []”.
With `CCc1c2c(nc3ccc(O)cc13)-c1cc3c(c(=O)n1C2)COC(=O)[C@]3(O)CC` [7-ETHYL-10-HYDROXYCAMPTOTHECIN] the entry was “substrate []”; with `O=C1c2c(O)ccc(O)c2C(=O)c2c(NCCNCCO)ccc(NCCNCCO)c21` [MITOXANTRONE], “substrate []”.
